Patent publication US7935707B2, “Imidazole derivatives” (Hoffman-La Roche Inc., priority 2007, dated 2011)

target: T1, human chemokine receptor 2 isoform B (Homo sapiens, UniProt P41597); experiment: Calcium mobilization assay; format: cell-based; settings: CHOK1-CCR2B-A5 cells; antagonist activity against 20 nM MCP-1; FLIPR, Fluo-4
T1 construct: host or cells: CHOK1-CCR2B-A5 (CHO-K1)
T1 sequence (P41597 1-360 isoform P41597-2): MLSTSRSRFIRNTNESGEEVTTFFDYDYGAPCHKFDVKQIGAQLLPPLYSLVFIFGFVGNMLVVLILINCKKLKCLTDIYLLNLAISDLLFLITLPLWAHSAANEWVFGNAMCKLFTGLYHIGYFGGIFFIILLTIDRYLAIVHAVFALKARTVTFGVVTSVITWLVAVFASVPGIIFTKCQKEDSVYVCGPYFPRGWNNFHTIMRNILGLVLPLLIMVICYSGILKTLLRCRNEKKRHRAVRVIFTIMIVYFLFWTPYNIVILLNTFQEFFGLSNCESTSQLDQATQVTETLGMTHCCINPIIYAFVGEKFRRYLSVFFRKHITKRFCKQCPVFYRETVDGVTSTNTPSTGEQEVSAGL
Protocol: Calcium Mobilization Assay
CHOK1-CCR2B-A5 cells (from Euroscreen) stably overexpressing the human chemokine receptor 2 isoform B were cultured in Nutrient Hams F12 medium supplemented with 5% FBS, 100 U/ml penicillin, 100 μg/ml streptomycin, 400 μg/ml G418 and 5 μg/ml puromycin. For the assay cells were grown overnight in 384-well black clear flat bottom polystyrene plates (Costar) at 37° C. at 5% CO2. After washing with DMEM, 20 mM Hepes, 2.5 mM probenecid, 0.1% BSA (DMEM assay buffer) cells were loaded with 4 μM Fluo-4 in the same DMEM assay buffer for 2 hours at 30° C. Excess dye was removed and cells were washed with DMEM assay buffer. 384-well compound plates were prepared with DMEM assay buffer/0.5% DMSO with or without various concentrations of test compounds. Usually compounds were tested for agonist and antagonist activity.
Test compounds were added to the assay plate and agonist activity was monitored as fluorescence for 80 seconds with a FLIPR (488 nm excitation; 510-570 nm emission; Molecular Devices). After 20-30 min. of incubation at 30° C., 20 nM MCP-1 (R&D; Roche) was added and fluorescence was monitored again for 80 seconds. Increases in intracellular calcium are reported as maximum fluorescence after agonist exposure minus basal fluorescence before exposure. Antagonist activity is indicated as inhibitor concentration required for 50% inhibition of specific calcium increases.

Row | SMILES | IC50 [nM]
1 | CCCCCCc1cccc(-c2nc(I)c(C(=O)N3CCC(N(CC)CC)C3)n2C)c1 (racemic) [Example 1, (rac)-(3-Diethylamino-pyrrolidin-1-yl)-[2-(3-hexyl-phenyl)-5-iodo-3-methyl-3H-imidazol-4-yl]-methanone] | 120
2 | CCCCCCc1cccc(-c2nc(I)c(C(=O)N3CCCN(CCO)CC3)n2C)c1 [Example 3, [2-(3-Hexyl-phenyl)-5-iodo-3-methyl-3H-imidazol-4-yl]-[4-(2-hydroxy-ethyl)-[1,4]diazepan-1-yl]-methanone] | 130
3 | C#Cc1nc(-c2cccc(CCCCCC)c2)n(C)c1C(=O)N1CCC(N2CCCC2)CC1 [Example 13, [5-Ethynyl-2-(3-hexyl-phenyl)-3-methyl-3H-imidazol-4-yl]-(4-pyrrolidin-1-yl-piperidin-1-yl)-methanone] | 35
4 | CCCCCCc1cccc(-c2nc(C#N)c(C(=O)N3CCC(N4CCCC4)CC3)n2C)c1 [Example 18, 2-(3-Hexyl-phenyl)-1-methyl-5-(4-pyrrolidin-1-yl-piperidine-1-carbonyl)-1H-imidazole-4-carbonitrile] | 75

Now from value to compound:

Row | IC50 [nM] | SMILES
5 | 90 | Cn1c(-c2cccc(OC(F)(F)F)c2)nc(-c2cncnc2)c1C(=O)N1CCC(N2CCCC2)CC1 [Example 22, [3-Methyl-5-pyrimidin-5-yl-2-(3-trifluoromethoxy-phenyl)-3H-imidazol-4-yl]-(4-pyrrolidin-1-yl-piperidin-1-yl)-methanone]
6 | 71 | CCc1nc(-c2cccc(OC(F)(F)F)c2)n(C)c1C(=O)N1CCC(N2CCCC2)CC1 [Example 25, [5-Ethyl-3-methyl-2-(3-trifluoromethoxy-phenyl)-3H-imidazol-4-yl]-(4-pyrrolidin-1-yl-piperidin-1-yl)-methanone]
7 | 18 | Cn1c(-c2cccc(C(F)(F)F)c2)nc(I)c1C(=O)N1CCC(N2CCCC2)CC1 [Example 36, [5-Iodo-3-methyl-2-(3-trifluoromethyl-phenyl)-3H-imidazol-4-yl]-(4-pyrrolidin-1-yl-piperidin-1-yl)-methanone]
8 | 160 | Cn1c(-c2cccc(OC(F)(F)F)c2)nc(I)c1C(=O)N1CCC(N2CCC[C@@H]2CO)CC1 [Example 46, [4-((R)-2-Hydroxymethyl-pyrrolidin-1-yl)-piperidin-1-yl]-[5-iodo-3-methyl-2-(3-trifluoromethoxy-phenyl)-3H-imidazol-4-yl]-methanone]
